From ChEMBL document CHEMBL4190348, “Synthesis of cytotoxically active derivatives based on alkylated 2,3-seco-triterpenoids” (Eur J Med Chem, 2017) come the findings set out here.

SMILES strings stand for the structures. Converted amounts (≈) assume the structure as drawn. The source made the active and inactive calls. The rule behind the calls is not given here.

Broadly, the IC50 is the concentration that inhibits the measured activity by half. A word on the EC50: it is the concentration that produces a half-maximal response. Low values mean higher potency in that assay, high ones lower potency in that assay. The term GI50 denotes the concentration that inhibits growth by half. A lower GI50 goes with greater sensitivity of the cells.

For series [1], the system named is HCT-116. Nature of the series: Induction of apoptosis in human HCT116 cells assessed as increase in mitochondrial membrane depolarization at 10 uM incubated for 18 hrs by rhodamine 123 staining based fluorescent inverted microscopy (reference value: 8%). The format is functional.
In the next series the test system is HEp-2. Nature of the series: Cytotoxicity against human Hep2 cells assessed as reduction in cell viability incubated for 72 hrs by MTT assay. Type of series: functional, cell-based. The conditions noted are these: HEp-2, 72 h. Background: Tetrazolium dyes change colour on reduction, which living cells bring about.
In series [2] the test system is HCT-116. Nature of the series: Cytotoxicity against human HCT116 cells assessed as reduction in cell viability incubated for 72 hrs by MTT assay. Type of series: functional, cell-based. The conditions noted are these: HCT-116, 72 h.
Series [3] can be described thus: Cytotoxicity against human MS cells assessed as reduction in cell viability incubated for 72 hrs by MTT assay. Type of series: functional, cell-based.
A further series has as its system RD. Nature of the series: Cytotoxicity against human TE32 cells assessed as reduction in cell viability incubated for 72 hrs by MTT assay. Type of series: functional, cell-based.
Another series relates to A549. Nature of the series: Cytotoxicity against human A549 cells assessed as reduction in cell viability incubated for 72 hrs by MTT assay. Type of series: functional, cell-based. Conditions: A549, 72 h.
In a further series the test system is HEK293. Nature of the series: Cytotoxicity against HEK293 cells assessed as reduction in cell viability incubated for 72 hrs by MTT assay. Type of series: cell-based. Conditions: Homo sapiens, HEK293, 72 h.
The nature of series [4]: Selectivity index, ratio of IC50 for HEK293 cells to IC50 for human HCT116 cells. Type of series: toxicity. Conditions: HEK293 cells versus HCT116 cells, read-out: Ratio IC50.
Series [5] can be described thus: Selectivity index, ratio of IC50 for HEK293 cells to IC50 for human Hep2 cells. The format is toxicity. Conditions: HEK293 cells versus Hep2 cells, read-out: Ratio IC50.
The nature of series [6]: Selectivity index, ratio of IC50 for HEK293 cells to IC50 for human TE32 cells. The conditions noted are these: HEK293 cells versus TE32 cells, read-out: Ratio IC50. The format is toxicity.
The nature of series [7]: Selectivity index, ratio of IC50 for HEK293 cells to IC50 for human MS cells. Type of series: toxicity. The conditions noted are these: HEK293 cells versus MS cells, read-out: Ratio IC50.
The subject of series [8] is HCT-116. Nature of the series: Induction of apoptosis in human HCT116 cells assessed as viable cells level at 10 uM incubated for 16 hrs by Annexin V-FICT/PI staining based flow cytometry (reference value: 91.36%). The format is functional.
Series [9] deals with HCT-116. Nature of the series: Induction of apoptosis in human HCT116 cells assessed as early apoptotic cells level at 10 uM incubated for 16 hrs by Annexin V-FICT/PI staining based flow cytometry (reference value: 4.47%). The format is functional. Background: A flow cytometer gives signals particle by particle.
For series [10], the system named is HCT-116. Nature of the series: Induction of apoptosis in human HCT116 cells assessed as late apoptotic cells level at 10 uM incubated for 16 hrs by Annexin V-FICT/PI staining based flow cytometry (reference value: 2.51%). Type of series: functional.
The subject of series [11] is HCT-116. Nature of the series: Induction of apoptosis in human HCT116 cells assessed as necrotic cells level at 10 uM incubated for 16 hrs by Annexin V-FICT/PI staining based flow cytometry (reference value: 1.67%). The format is functional.
The subject of series [12] is HCT-116. Nature of the series: Induction of apoptosis in human HCT116 cells assessed as increase in chromatin condensation at 10 uM incubated for 18 hrs by Hoechst 33258 staining based fluorescent inverted microscopy. Type of series: functional.
Series [13] concerns HCT-116. Nature of the series: Induction of apoptosis in human HCT116 cells assessed as increase in caspase-8 activity at 10 uM after 12 hrs by fluorimetric assay. The format is functional, cell-based.
The subject of series [14] is HCT-116. Nature of the series: Induction of apoptosis in human HCT116 cells assessed as increase in caspase-3/7 activity at 10 uM after 18 hrs by fluorimetric assay. The format is functional, cell-based.
The subject of series [15] is HCT-116. Nature of the series: Induction of apoptosis in human HCT116 cells assessed as increase in caspase-3/7 activity at 10 uM after 24 hrs by fluorimetric assay. Type of series: functional, cell-based.
The test system of series [16] is HCT-116. Nature of the series: Induction of apoptosis in human HCT116 cells assessed as increase in cck18 level at 10 uM after 18 hrs by fluorimetric assay. The format is functional, cell-based.
The subject of series [17] is HCT-116. Nature of the series: Cytotoxicity against human HCT116 cells assessed as reduction in cell viability at 10 uM incubated for 12 to 72 hrs by MTT assay. Type of series: functional, cell-based. The conditions noted are these: TDE = time-dependent effect.
The subject of series [18] is Human immunodeficiency virus 1. Nature of the series: Antiviral activity against HIV1. Type of series: functional, organism-based.
In series [19] the test system is HCT-116. Nature of the series: Induction of apoptosis in human HCT116 cells assessed as viable cells level at 2 uM incubated for 16 hrs by Annexin V-FICT/PI staining based flow cytometry (reference value: 91.36%). Type of series: functional.
For series [20], the system named is HCT-116. Nature of the series: Induction of apoptosis in human HCT116 cells assessed as early apoptotic cells level at 2 uM incubated for 16 hrs by Annexin V-FICT/PI staining based flow cytometry (reference value: 4.47%). Type of series: functional.
In series [21] the test system is HCT-116. Nature of the series: Induction of apoptosis in human HCT116 cells assessed as late apoptotic cells level at 2 uM incubated for 16 hrs by Annexin V-FICT/PI staining based flow cytometry (reference value: 2.51%). The format is functional.
Series [22] concerns HCT-116. Nature of the series: Induction of apoptosis in human HCT116 cells assessed as necrotic cells level at 2 uM incubated for 16 hrs by Annexin V-FICT/PI staining based flow cytometry (reference value: 1.67%). Type of series: functional.
The test system of series [23] is HCT-116. Nature of the series: Induction of apoptosis in human HCT116 cells assessed as increase in mitochondrial membrane depolarization at 2 uM incubated for 18 hrs by rhodamine 123 staining based fluorescent inverted microscopy (reference value: 8%). The format is functional.
The test system of another series is HL-60. Nature of the series: Growth inhibition of human HL60 cells. Type of series: functional.
The test system of the next series is Human alphaherpesvirus 1. Nature of the series: Antiviral activity against HSV1. The format is functional, organism-based.

On to `C=C(C=O)[C@@H]1CC[C@]2(C(=O)OC)CC[C@]3(C)[C@H](CC[C@@H]4[C@@](C)(CC#N)[C@H](C(C)(C)C(=O)CBr)CC[C@]43C)[C@@H]12`, for which the Activity with HCT-116 [1] was found to be 11.6%; with HCT-116 [8] it was 59.86%; in the series on HCT-116 [9], 25.61%; in the series with HCT-116 [10] it was 10.07%; in the series with HCT-116 [11], 4.46%; in the series on HCT-116 [12], 28.3%. Besides, in the series with HCT-116 [17], the Activity result is “Tde”. The IC50 is 5.28 µM in the series on HEp-2; 10.3 µM with HCT-116 [2]; 3.41 µM in [3]; 3.84 µM in the series with RD; 25.4 µM with A549; 92.3 µM with HEK293. Besides, the selectivity ratio in [4] came to 8.9; in series [5], 17.4; in series [6], 24.3; in series [7], 27.2. The outcome in the series with HCT-116 [13], with HCT-116 [14], in the series on HCT-116 [15] and in the series with HCT-116 [16] was Active.

Turning to `C=C(C)[C@@H]1CC[C@]2(C(=O)O)CC[C@]3(C)[C@H](CC[C@@H]4[C@@]5(C)[C@H](C(=O)O)[C@H](O)C(C)(C)[C@@H]5CC[C@]43C)[C@@H]12` [EPICEANOTHIC ACID], the EC50 in [18] is less than 0.064 µg/mL.

For the compound `CC[C@@]1(O)C(=O)OCc2c1cc1n(c2=O)Cc2cc3ccccc3nc2-1` [CAMPTOTHECIN], the Activity in the series with HCT-116 [19] is 80.88%; in the series with HCT-116 [20], 12.44%; in the series with HCT-116 [21], 5.07%; in the series with HCT-116 [22] it was 1.6%; in the series with HCT-116 [23], -30%. For the same compound, the values for the IC50 (in the series with HEp-2; in the series with HCT-116 [2]; in [3]) were 3.04 µM, 1.88 µM and 1.84 µM, respectively.

With `C=C(C)[C@@H]1CC[C@]2(C(=O)OC)CC[C@]3(C)[C@H](CC[C@@H]4[C@@](C)(CC#N)[C@H](C(C)(C)C(C)=O)CC[C@]43C)[C@@H]12`, it took 39.9 µg/mL (≈ 80.5 µM) to reach a half-maximal effect in series [18] (EC50). Further, the IC50 (with HEp-2; in the series with HCT-116 [2]; in series [3]; in the series on RD; with A549) was greater than 100 µM in each case.

In the series with HL-60, `C=C(C)[C@@H]1CC=C2[C@@H](CC[C@]3(C)[C@@H]([C@H](C)CC(=O)CC(C)C)CC[C@@]23C)[C@@]1(C)CCC(=O)O` had a GI50 of 6.8 µM.

Turning to `C=C(C=O)[C@@H]1CC[C@]2(C(=O)OC)CC[C@]3(C)[C@H](CC[C@@H]4[C@@](C)(CC#N)[C@H](C(C)(C)C(C)=O)CC[C@]43C)[C@@H]12`, the IC50 was 52.1 µM in the series on HEp-2; 7.3 µM in the series with HCT-116 [2]; 5.48 µM in [3]; 5.04 µM with RD; 15.4 µM with A549; 6 µM in the series with HEK293.

Take `CC(=O)C(C)(C)[C@@H]1CC[C@]2(C)[C@H](CC[C@@H]3[C@H]4[C@H]5OC[C@@]4(CCC5(C)C)CC[C@]32C)[C@@]1(C)CC#N`: the EC50 in series [18] amounted to 7.2 µg/mL (≈ 15.4 µM); in the series on Human alphaherpesvirus 1, 21.1 µg/mL (≈ 45.1 µM). The IC50 (in the series with HEp-2; in the series on HCT-116 [2]; in [3]; with RD; with A549) was greater than 100 µM in each case.

Turning to `C=C(C)[C@@H]1CC[C@]2(C(=O)OC)CC[C@]3(C)[C@H](CC[C@@H]4[C@@]5(C)C/C(=N\O)[C@](C)(O)C(C)(C)[C@@H]5CC[C@]43C)[C@@H]12`, the IC50 is 71 µM in the series with HEp-2; greater than 100 µM in the series on HCT-116 [2]; 23.5 µM in [3]; 29 µM in the series on RD; 55.4 µM with A549.

Take `C=C(C)[C@@H]1CC[C@]2(C(=O)OC)CC[C@]3(C)[C@H](CC[C@@H]4[C@@](C)(CC#N)[C@H](C(C)(C)[C@@H](C)OC(C)=O)CC[C@]43C)[C@@H]12`: the IC50 is greater than 100 µM in the series with HEp-2; greater than 100 µM with HCT-116 [2]; 96.9 µM in series [3]; 42.5 µM with RD; 92.7 µM with A549.
